Measurements published in US12419871B2, “Biomolecules involved in Alzheimer's disease” (ELECTROPHORETICS LIMITED, priority 2015, dated 2025).
Values joined by “and” are separate entries in the source; they are usually repeats but may differ in a detail not shown here. Identical values can stand only once. “Also recorded” adds a separate entry of the source.

System: TMHT (Thy-1 Mutated Human Tau) mice
Test: SysQuant analysis of protein and phosphorylation changes in brains of TMHT mice treated with CK1d inhibitors
Format: in vivo, mouse
Settings: for Mouse brain Log 2 Ck1 inhibitor: 2′,3′-cyclic-nucleotide 3′-phosphodiesterase / Mouse brain Log 2 Ck1 inhibitor: phosphatase 1 regulatory subunit 14A / effect of treatment on protein phosphatase 1 regulatory subunit 14A level in mouse brain (in words) / effect of treatment on 2′,3′-cyclic-nucleotide 3′-phosphodiesterase level in mouse brain (in words): 30 mg/kg; for effect of treatment on protein phosphatase 1 regulatory subunit 14A level in mouse brain (in words) / effect of treatment on 2′,3′-cyclic-nucleotide 3′-phosphodiesterase level in mouse brain (in words): TMHT model, treated orally 30 mg/kg; for effect of treatment on protein phosphatase 1 regulatory subunit 14A level in mouse brain (in words): versus vehicle alone (FIG. 5B); for effect of treatment on 2′,3′-cyclic-nucleotide 3′-phosphodiesterase level in mouse brain (in words): versus vehicle alone (FIG. 6B); for number of human tau peptides significantly (p<0.05) regulated in the hippocampi of treated mice: of 124 unique quantified peptides from human tau, 30 mg/kg orally
Protocol: Starting at 8.5 months (±2 weeks) of age, TMHT mice received CK1d inhibitors 2-Methyl-amino-3-[(4-fluorophenyl)carbonyl]indolizine-1-carboxamide (PS278-05), 5-(1,3-benzoxazol-2-yl)-4-(pyridine-4-yl)pyrimidin-2-amine (PS110), compound PF4800567 (3-[(3-Chlorophenoxy)methyl]-1-(tetrahydro-2H-pyran-4-yl)-1H-pyrazolo[3,4-d]pyrimidin-4-amine; Tocris®) or vehicle (0.5% w/v methylcellulose) for 8 weeks (54 applications) at a dosage of 30 mg/kg body weight, orally via gavage.
In total 48 animals were used and allocated to 4 treatment groups.
Brain samples were collected within 10 minutes of euthanasia, washed in ice cold saline, transferred to a clean Eppendorf tube and immediately frozen in liquid nitrogen.
One hippocampus sample (left or right) from each of three animals in each of the vehicle, PS110 and PS278-05 groups were selected for analysis by SysQuant. A pool of all nine samples was also prepared as a reference channel. All TMT® labelling, mixing and mass spectrometry and bioinformatics studies were performed essentially as described in Section 4.1. For peptide and protein identification the UniProtKB mouse database was used, supplemented by inclusion of all human tau isoform entries.
All protein identification, peptide sequence, phosphorylation site information along with quantitative values and biological information relating to the peptide, protein and phosphorylation sites were assembled in a Microsoft Excel file (QuantSheet) to allow structured data analysis based on fold-change, significance, biological function and cellular localisation.
Similarly, the expression levels of total tau and for each phosphorylated serine, threonine and tyrosine amino acid in mouse brains following treatment with vehicle control or the CK1d inhibitors PS278-05 and PS110 were calculated.
All peptides that matched the human MAPT (P10636; SEQ ID NO:29) UniProt sequence and/or the mouse MAPT (P10637) were exported into a separate Microsoft Excel sheet. Ion intensity values for each phosphopeptide were summed and the average calculated for each treatment group (Vehicle control, PS110, PS278-05).

[1] = TMHT mice, hippocampus, 30 mg/kg orally via gavage, 8 weeks

Compound	Mouse brain Log 2 Ck1 inhibitor: BH3-interacting domain death agonist [1]	Mouse brain Log 2 Ck1 inhibitor: Catenin delta-1 [1]	Mouse brain Log 2 Ck1 inhibitor: Clathrin light chain B [1]	Mouse brain Log 2 Ck1 inhibitor: Guanine nucleotide-binding protein G(q) subunit alpha [1]	Mouse brain Log 2 Ck1 inhibitor: Myelin-associated oligodendrocyte basic protein [1]	Mouse brain Log 2 Ck1 inhibitor: Neutral alpha-glucosidase AB [1]	Mouse brain Log 2 Ck1 inhibitor: Secernin-2 [1]	Mouse brain Log 2 Ck1 inhibitor: Short-chain specific acyl-CoA dehydrogenase, mitochondrial [1]	Mouse brain Log 2 Ck1 inhibitor: Syntaphilin [1]	Mouse brain Log 2 Ck1 inhibitor: Transmembrane protein 119 [1]	Mouse brain Log 2 Ck1 inhibitor: 2′,3′-cyclic-nucleotide 3′-phosphodiesterase [1]	Mouse brain Log 2 Ck1 inhibitor: phosphatase 1 regulatory subunit 14A [1]	effect of treatment on protein phosphatase 1 regulatory subunit 14A level in mouse brain (in words)	effect of treatment on 2′,3′-cyclic-nucleotide 3′-phosphodiesterase level in mouse brain (in words)	number of human tau peptides significantly (p<0.05) regulated in the hippocampi of treated mice (TMHT mice, 8 weeks)	also measured
NC(=O)c1c(N)c(C(=O)c2ccc(F)cc2)n2ccccc12 [PS278, 2-amino-3-[(4-fluorophenyl)carbonyl]indolizine-1-carboxamide]	−0.56	−1.07	0.50	0.62	0.66	−0.78	−0.52	0.57	−0.76	−0.52	0.62 and 0.63	0.49 and 0.71				Mouse brain Log 2 Ck1 inhibitor: Centrosomal protein of 170 kDa [1]: −0.51; Mouse brain Log 2 Ck1 inhibitor: Egl nine homolog 1 [1]: -0.73; Mouse brain Log 2 Ck1 inhibitor: Lambda-crystallin homolog [1]: 0.56; Mouse brain Log 2 Ck1 inhibitor: OCIA domain-containing protein 1 [1]: −0.59; Mouse brain Log 2 Ck1 inhibitor: Synaptoporin [1]: 0.72; Mouse brain Log 2 Ck1 inhibitor: Tubulin alpha chain-like 3 [1]: 0.67
Nc1ncc(-c2nc3ccccc3o2)c(-c2ccncc2)n1 [PS110, 5-(1,3-benzoxazol-2-yl)-4-(pyridin-4-yl)pyrimidin-2-amine]	−0.53	−2.26	0.70	0.82	0.84	0.52	−0.76	0.54	−0.71	−0.66	0.63 and 0.57	0.71 and 0.69	altering the concentration or amount; also recorded: upregulated	altering the concentration or amount; also recorded: upregulated	37	Mouse brain Log 2 Ck1 inhibitor: Actin, alpha cardiac muscle 1 [1]: 0.58; Mouse brain Log 2 Ck1 inhibitor: Antithrombin-III [1]: 0.57; Mouse brain Log 2 Ck1 inhibitor: Fibrinogen gamma chain [1]: 1.01; Mouse brain Log 2 Ck1 inhibitor: GMP reductase 1 [1]: 0.68; Mouse brain Log 2 Ck1 inhibitor: Insulin-like growth factor-binding protein [1]: −0.53; Mouse brain Log 2 Ck1 inhibitor: KxDL motif-containing protein 1 [1]: −0.58; Mouse brain Log 2 Ck1 inhibitor: Nuclear pore complex protein Nup155 [1]: −0.53; Mouse brain Log 2 Ck1 inhibitor: Protein KIAA1045 [1]: −0.63; Mouse brain Log 2 Ck1 inhibitor: Serum albumin [1]: 0.69; Mouse brain Log 2 Ck1 inhibitor: cAMP-dependent protein kinase type 1 [1]: 0.53; effect of treatment on protein phosphatase 1 regulatory subunit 14A level in mouse brain (in words) (listed as 5-(1,3-benzoxazol-2-yl)-4-(pyridine-4-yl)pyrimidin-2-amine): up-regulation
CNc1c(C(N)=O)c2ccccn2c1C(=O)c1ccc(F)cc1 [PS278-05, 2-Methyl-amino-3-[(4-fluorophenyl)carbonyl]indolizine-1-carboxamide]													up-regulation; also recorded: altering the concentration or amount; also recorded: upregulated	altering the concentration or amount; also recorded: upregulated	22	
